pIC50: −log10 of the molar value.
These molecules were tested against T1, Axl (Homo sapiens, UniProt P30530) (assay: Axl NanoBRET intracellular kinase assay (intracellular binding, K-5 tracer displacement)). Conditions: HEK-293 cells transfected with Axl-NanoLuc, 0.35 μM K-5 NanoBRET tracer; read-out: Cell Binding AXL.
T1 sequence (P30530 26-894): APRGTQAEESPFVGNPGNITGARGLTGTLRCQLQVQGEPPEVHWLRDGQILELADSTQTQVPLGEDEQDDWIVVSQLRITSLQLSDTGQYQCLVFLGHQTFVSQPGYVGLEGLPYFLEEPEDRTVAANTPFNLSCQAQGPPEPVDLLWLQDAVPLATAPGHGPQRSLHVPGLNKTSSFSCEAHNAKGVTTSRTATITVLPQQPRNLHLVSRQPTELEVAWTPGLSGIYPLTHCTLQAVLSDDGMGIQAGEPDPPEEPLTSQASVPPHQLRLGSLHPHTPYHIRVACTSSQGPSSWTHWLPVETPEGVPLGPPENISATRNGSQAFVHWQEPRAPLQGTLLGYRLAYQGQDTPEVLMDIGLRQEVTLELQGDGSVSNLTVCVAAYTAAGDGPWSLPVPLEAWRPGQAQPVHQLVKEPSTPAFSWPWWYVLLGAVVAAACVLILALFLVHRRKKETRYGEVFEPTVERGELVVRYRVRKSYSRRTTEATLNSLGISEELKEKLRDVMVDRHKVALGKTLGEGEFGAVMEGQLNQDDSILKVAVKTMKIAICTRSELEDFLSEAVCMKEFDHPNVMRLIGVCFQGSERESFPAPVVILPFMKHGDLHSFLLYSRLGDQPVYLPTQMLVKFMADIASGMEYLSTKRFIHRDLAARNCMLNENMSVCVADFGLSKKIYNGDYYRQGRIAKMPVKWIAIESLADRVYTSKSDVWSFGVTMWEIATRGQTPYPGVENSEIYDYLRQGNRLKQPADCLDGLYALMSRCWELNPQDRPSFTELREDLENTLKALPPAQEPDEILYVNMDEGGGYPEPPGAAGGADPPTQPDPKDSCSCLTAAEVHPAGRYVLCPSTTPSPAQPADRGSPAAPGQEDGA
Design: host or cells: HEK-293
Description: Measuring Intracellular Binding of Axl Inhibitors
Axl NanoBRET™ intracellular kinase assay (Promega, N2540) was performed according to manufacturer's recommendation. In brief, HEK-293 cells are transiently transfected with Ax1-NanoLuc fusion vector (Promega, NV1071), utilizing Fugene HD transfection reagent (Promega, E2311) a day before experiment following manufacturer's recommendation.
The day of the assay, the cells were collected and resuspended in Opti-MEM media (ThermoFisher, 31985070) at 2e5 cells/mL concentration. Testing compounds were serial diluted and dispensed into a white 384 well polystyrene plate at 200 nL in 100% DMSO. 40 μL of resuspended cells is then added per well for a final condition of 8K cells/well with 0.5% DMSO. After one-hour compound pre-incubation at 37° C. and 5% CO2, cells were further incubated with 0.35 μM K-5 NanoBRET tracer for two-hours at 37° C. and 5% CO2. […] of 3× substrate plus Inhibitor solution was prepared according to kits manual and added to the cells followed by a 30 second pulse centrifugation spin. The plate was then immediately read utilizing an Envision (Perkin Elmer) plate reader. The BRET signal is measured by taking the ratio of the emissions reading at 610 nm and 450 nm. Compound binding is based on the decrease BRET signal caused by the displacement of the K-5 tracer. […] ICso value of compounds was determined by 4-parameter non-linear regression fitting of percent activity in GraphPad Prism software.

pIC50, > 7.00:
Cn1ncnc1-c1ccc(-c2n[nH]c3ncc(-c4ccc5c(c4)CC[C@@H](N4C6COCC4C6)CC5)cc23)cc1 [Example 110, 6-[(7S)-2-{3-[4-(1-Methyl-1H-1,2,4-triazol-5-yl)phenyl]-2H-pyrazolo[3,4-b]pyridin-5-yl}-6,7,8,9-tetrahydro-5H-benzo[7]annulen-7-yl]-3-oxa-6-azabicyclo[3.1.1]heptane]
CN(C)C(=O)c1cccc(-c2ccc(-c3n[nH]c4ncc(-c5ccc6c(c5)CC[C@@H](N5C7COCC5C7)CC6)cc34)cc2)n1 [Example 94, N,N-Dimethyl-6-(4-{5-[(7S)-7-{3-oxa-6-azabicyclo[3.1.1]heptan-6-yl}-6,7,8,9-tetrahydro-5H-benzo[7]annulen-2-yl]-2H-pyrazolo[3,4-b]pyridin-3-yl}phenyl)pyridine-2-carboxamide]
Cn1cnnc1-c1ccc(-c2n[nH]c3ncc(-c4ccc5c(c4)CC[C@@H](N4C6COCC4C6)CC5)cc23)cc1 [Example 169, 6-[(7S)-2-{3-[4-(4-Methyl-4H-1,2,4-triazol-3-yl)phenyl]-1H-pyrazolo[3,4-b]pyridin-5-yl}-6,7,8,9-tetrahydro-5H-benzo[7]annulen-7-yl]-3-oxa-6-azabicyclo[3.1.1]heptane]
O=C(c1cccnc1-c1ccc(-c2c[nH]c3ncc(-c4ccc5c(c4)CC[C@@H](N4C6COCC4C6)CC5)cc23)cc1)N1CCCC1 [Example 171, 6-[(7S)-2-(3-{4-[3-(Pyrrolidine-1-carbonyl)pyridin-2-yl]phenyl}-1H-pyrrolo[2,3-b]pyridin-5-yl)-6,7,8,9-tetrahydro-5H-benzo[7]annulen-7-yl]-3-oxa-6-azabicyclo[3.1.1]heptane]
C[C@@H]1CCCN1[C@@]1(C)CCc2ccc(-c3cnc4[nH]cc(-c5ccc(-c6ccccn6)cc5)c4c3)cc2CC1 [Example 156, 2-(4-{5-[(7S)-7-Methyl-7-[(2R)-2-methylpyrrolidin-1-yl]-6,7,8,9-tetrahydro-5H-benzo[7]annulen-2-yl]-1H-pyrrolo[2,3-b]pyridin-3-yl}phenyl)pyridine]
Cn1ccnc1-c1ccc(-c2n[nH]c3ncc(-c4ccc5c(c4)CC[C@@H](N4C6COCC4C6)CC5)cc23)cc1 [Example 111, 6-[(7S)-2-{3-[4-(1-Methyl-1H-imidazol-2-yl)phenyl]-1H-pyrazolo[3,4-b]pyridin-5-yl}-6,7,8,9-tetrahydro-5H-benzo[7]annulen-7-yl]-3-oxa-6-azabicyclo[3.1.1]heptane]
Cc1ccnnc1-c1ccc(-c2n[nH]c3ncc(-c4ccc5c(c4)CC[C@@H](N4C6COCC4C6)CC5)cc23)cc1 [Example 176, 6-[(7S)-2-{3-[4-(4-Methylpyridazin-3-yl)phenyl]-1H-pyrazolo[3,4-b]pyridin-5-yl}-6,7,8,9-tetrahydro-5H-benzo[7]annulen-7-yl]-3-oxa-6-azabicyclo[3.1.1]heptane]
c1ccc(-c2ccc(-c3c[nH]c4ncc(-c5ccc6c(c5)CC[C@@H](N5C7COCC5C7)CC6)cc34)cc2)nc1 [Example 155, 6-[(7S)-2-{3-[4-(Pyridin-2-yl)phenyl]-1H-pyrrolo[2,3-b]pyridin-5-yl}-6,7,8,9-tetrahydro-5H-benzo[7]annulen-7-yl]-3-oxa-6-azabicyclo[3.1.1]heptane]
Cc1cccnc1-c1ccc(-c2n[nH]c3ncc(-c4ccc5c(c4)CC[C@@](C)(N4CCC[C@H]4C)CC5)cc23)cc1 [Example 163, 3-Methyl-2-(4-{5-[(7S)-7-methyl-7-[(2R)-2-methylpyrrolidin-1-yl]-6,7,8,9-tetrahydro-5H-benzo[7]annulen-2-yl]-2H-pyrazolo[3,4-b]pyridin-3-yl}phenyl)pyridine]
c1ccc(-n2cc(-c3n[nH]c4ncc(-c5ccc6c(c5)CC[C@@H](N5C7COCC5C7)CC6)cc34)cn2)nc1 [Example 168, 6-[(7S)-2-{3-[1-(Pyridin-2-yl)-1H-pyrazol-4-yl]-1H-pyrazolo[3,4-b]pyridin-5-yl}-6,7,8,9-tetrahydro-5H-benzo[7]annulen-7-yl]-3-oxa-6-azabicyclo[3.1.1]heptane]
